Source: patent US10533015B1, “Opioid receptor antagonist prodrugs” (Nirsum Laboratories, Inc., priority 2019, dated 2020)
Like-named read-outs stand apart in the source and are kept apart here.

How the values were obtained:
[1] = Plasma stability assay, rat plasma; type: in vitro ADME; conditions: 10 μM, 37° C.
Procedure, shortened: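 Percentage of parent remaining was followed by HPLC-MS in duplicate, over 0–1440 min for rat and 0–120 min for dog, monkey and human plasma (2 μM, 1% solvent, 37 °C).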

[2] = Plasma stability assay, dog plasma; type: in vitro ADME; conditions: 2 μM, 37° C.
Procedure: (§1) Plasma stability determination of the test compounds in rat, dog, cynomolgus monkey and human plasma is performed using HPLC-MS. For rat, incubations are carried out in 96-well polypropylene plates in 5 aliquots of 70 μL each (one for each time point). […] Five time points are analyzed (0, 15, 120, 480 and 1440 min). […] All incubations are performed in duplicates. The samples are analyzed by HPLC-MS. The percentage of parent compound remaining after incubation in plasma is determined.

[3] = Plasma stability assay, monkey plasma; type: in vitro ADME, cynomolgus monkey; conditions: 2 μM, 37° C.
Procedure: as §1

[4] = Plasma stability assay, human plasma; type: in vitro ADME; conditions: 2 μM, 37° C.
Procedure: as §1

[5] = Liver S9 fraction stability, dog; type: in vitro ADME; conditions: dog liver S9, 1.0 mg/ml S9 protein, 2 μM, 37° C.
Procedure: (§2) Liver S9 fraction stability determination of the test compounds in dog, cynomolgus monkey and human is performed using HPLC-MS. Test compound (2 μM, 0.1% DMSO, 1% Methanol final concentration) was assessed for stability in a 50 μl phosphate buffer containing 1.0 mg/ml S9 protein from each of the three species and 5 mM D-saccharic acid-1, 4-lactone. Samples were incubated at 37° C. for 60 minutes and the % compound remaining was assessed.

[6] = Liver S9 fraction stability, monkey; type: in vitro ADME, cynomolgus monkey; conditions: monkey liver S9, 1.0 mg/ml S9 protein, 2 μM, 37° C.
Procedure: as §2

[7] = Liver S9 fraction stability, human; type: in vitro ADME; conditions: human liver S9, 1.0 mg/ml S9 protein, 2 μM, 37° C.
Procedure: as §2

[8] = heating temp. 40 °C, obs. temp. 40 °C
[9] = heating temp. 60 °C, obs. temp. 25 °C

Row | Structure (SMILES) | % remaining at time point ([1]; 0 min) [%] | % remaining at time point ([1]; 15 min) [%] | % remaining at time point ([1]; 120 min) [%] | % remaining at time point ([1]; 480 min) [%] | % remaining at time point ([1]; 1440 min) [%] | % remaining at time point ([2]; 0 min) [%] | % remaining at time point ([2]; 15 min (head)) [%] | % remaining at time point ([2]; 120 min (head)) [%] | % remaining at time point ([2]; 480 min (head)) [%] | % remaining at time point ([2]; 1440 min (head)) [%] | % remaining at time point ([3]; 0 min) [%] | % remaining at time point ([3]; 15 min (head)) [%] | % remaining at time point ([3]; 120 min (head)) [%] | % remaining at time point ([3]; 480 min (head)) [%] | % remaining at time point ([3]; 1440 min (head)) [%] | % remaining at time point ([4]; 0 min) [%] | % remaining at time point ([4]; 15 min (head)) [%] | % remaining at time point ([4]; 120 min (head)) [%] | % remaining at time point ([4]; 480 min (head)) [%] | % remaining at time point ([4]; 1440 min (head)) [%] | other results
1 | C=C1CC[C@@]2(O)C3Cc4ccc(OC(=O)CCCCCCC/C=C/CCCCCCCC)c5c4[C@@]2(CCN3CC2CC2)[C@H]1O5 [Compound 15, (4aS,7aS,12bS)-3-(cyclopropylmethyl)-4a-hydroxy-7-methylene-2,3,4,4a,5,6,7,7a-octahydro-1H-4,12-methanobenzofuro[3,2-e]isoquinolin-9-yl (E)-octadec-9-enoate] | 100 | 72 | 69.3 | 52 | 35 | 100 | 82.5 | 80.6 | 90.1 | 86.1 | 100 | 74.5 | 72.7 | 80.6 | 76.5 | 100 | 83.3 | 82.5 | 107.1 | 109.0 | % remaining at 60 minutes [5]: 80.9%; % remaining at 60 minutes [6]: 76.7%; % remaining at 60 minutes [7]: 59.8%; Approximate Solubility (mg/mL) in Excipient: Cottonseed oil [8]: <51 mg/mL; Approximate Solubility (mg/mL) in Excipient: Cottonseed oil [9]: >402.6 mg/mL; Approximate Solubility (mg/mL) in Excipient: Cottonseed oil (heating temp. 60 °C, obs. temp. 40 °C): >401 mg/mL; Approximate Solubility (mg/mL) in Excipient: Ethanol (Ethanol, heating temp. 40 °C, obs. temp. 40 °C): <20 mg/mL; Approximate Solubility (mg/mL) in Excipient: Sesame oil [8]: <52 mg/mL; Approximate Solubility (mg/mL) in Excipient: Sesame oil [9]: >396.5 mg/mL; Equilibrium solubility (mg/mL) Water [8]: <0.0002 mg/mL
2 | C=C1CC[C@@]2(O)C3Cc4ccc(OCOC(=O)OCCCCCCCCCCCC)c5c4[C@@]2(CCN3CC2CC2)[C@H]1O5 [Compound 24, (((4aS,7aS,12bS)-3-(cyclopropylmethyl)-4a-hydroxy-7-methylene-2,3,4,4a,5,6,7,7a-octahydro-1H-4,12-methanobenzofuro[3,2-e]isoquinolin-9-yl)oxy)methyl dodecyl carbonate] | 100 | 32 | 11.8 | 8.2 | 3 | 100 | 94.7 | 104.5 | 115.7 | 116.2 | 100 | 90.7 | 93.5 | 96.2 | 97.8 | 100 | 94 | 102.3 | 105.3 | 112.5 | % remaining at 60 minutes [5]: 3.6%; % remaining at 60 minutes [6]: 3%; % remaining at 60 minutes [7]: 3.5%; Approximate Solubility (mg/mL) in Excipient: Cottonseed oil [9]: >403 mg/mL; Approximate Solubility (mg/mL) in Excipient: Sesame oil [9]: 338 to 368 mg/mL; Equilibrium solubility (mg/mL) Water [8]: <0.001 mg/mL
